Reference: patent US20260216164A1, “INDOLE COMPOUND DECOMPOSING IKZF2, AND USE THEREOF” (KOREA RESEARCH INSTITUTE OF CHEMICAL TECHNOLOGY, priority 2023, published 2026)

Experiments:
[1] = molecular target: Helios (IKZF2) (Homo sapiens, UniProt Q96SW2+Q9UKS7); test: Screening of Helios protein degraders using Nano-Glo HiBiT cell line (HiBiT-IKZF2); type: cell-based; conditions: for remaining activity at 1 µM: compound 1 μM, read-out: HiBiT-IKZF2 Residual amount of Helios (%) 1 μM; for remaining activity at 1 µM / remaining activity at 10 µM: 6 hours, HiBiT-Helios knock-in Jurkat cells; for remaining activity at 10 µM: compound 10 μM, read-out: HiBiT-IKZF2 Residual amount of Helios (%) 10 μM
[2] = molecular target: IKZF2 (Helios) (Homo sapiens, UniProt Q96SW2+Q9UKS7); test: Screening of DC50 (nM) and Dmax (%) using WB-IKZF2 cell line (Western blot); type: cell-based; design: endogenous in cells; conditions: 6 hours; for DC50: class symbols, read-out: WB-IKZF2 DC 50
Protocol: Experimental Example 2. Screening of DC50 (nM) and Dmax (%) Using WB-IKZF2 Cell Line
Candidate degraders were serially diluted and treated in cells cultured in complete medium, followed by incubation for 6 hours at 37° C. in a CO2 incubator. After 6 hours, the cells were harvested and lysed in RIPA buffer (150 mM NaCl, 1% Triton X-100, 1% sodium deoxycholate, 0.1% SDS, 50 mM Tris-HCl pH 7.5, and 2 mM EDTA) containing a protease inhibitor cocktail (Roche). The mixture was vortexed every 10 minutes and incubated on ice for 30 minutes, followed by centrifugation at 13,000 rpm for 10 minutes at 4° C. to isolate proteins. The isolated proteins were quantified using the Bradford assay (Bio-Rad, 5000006). Proteins were separated on 8% SDS-polyacrylamide gel, transferred onto nitrocellulose membranes (Amersham, 10600002), and incubated with primary antibodies at 4° C. for 18 hours. The following primary antibodies were used: anti-Helios rabbit monoclonal antibody (Cell Signaling, 42427, 1:3000) and anti-β-actin mouse monoclonal antibody (Santa Cruz, sc-47778, 1:5000). β-actin was used as a loading control. The next day, the membranes were washed with 1×TBST for 30 minutes and incubated with HRP-conjugated secondary antibodies corresponding to the primary antibodies at room temperature for 1 hour. The following secondary antibodies were used: anti-mouse IgG HRP-linked antibody (Sigma, A9044, 1:5000) and anti-rabbit IgG HRP-linked antibody (Cell Signaling, 7074, 1:5000). After washing with 1×TBST for 30 minutes, protein expression was visualized using the Pierce ECL Western blotting substrate (Thermo Fisher, 32106), and images were captured using a chemiluminescence image analysis system (GE Healthcare, AI680). The obtained images were quantified using the ImageJ software.

Chain of IKZF2 (Helios) (Q9UKS7 whole entry): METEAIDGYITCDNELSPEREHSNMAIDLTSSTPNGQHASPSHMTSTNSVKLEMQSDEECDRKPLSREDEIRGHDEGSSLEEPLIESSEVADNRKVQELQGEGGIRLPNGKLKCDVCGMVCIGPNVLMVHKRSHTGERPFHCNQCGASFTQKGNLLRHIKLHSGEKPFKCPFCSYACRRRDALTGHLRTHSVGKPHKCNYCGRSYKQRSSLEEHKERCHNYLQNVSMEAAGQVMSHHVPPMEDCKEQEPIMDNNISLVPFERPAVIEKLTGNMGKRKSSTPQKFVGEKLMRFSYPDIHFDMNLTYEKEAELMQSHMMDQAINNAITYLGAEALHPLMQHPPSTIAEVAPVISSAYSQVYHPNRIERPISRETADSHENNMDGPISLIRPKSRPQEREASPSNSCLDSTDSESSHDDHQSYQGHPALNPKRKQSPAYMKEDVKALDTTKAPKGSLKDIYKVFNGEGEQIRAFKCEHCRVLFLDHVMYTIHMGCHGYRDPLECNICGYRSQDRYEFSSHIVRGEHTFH
Chain of IKZF2 (Helios) (Q96SW2 whole entry): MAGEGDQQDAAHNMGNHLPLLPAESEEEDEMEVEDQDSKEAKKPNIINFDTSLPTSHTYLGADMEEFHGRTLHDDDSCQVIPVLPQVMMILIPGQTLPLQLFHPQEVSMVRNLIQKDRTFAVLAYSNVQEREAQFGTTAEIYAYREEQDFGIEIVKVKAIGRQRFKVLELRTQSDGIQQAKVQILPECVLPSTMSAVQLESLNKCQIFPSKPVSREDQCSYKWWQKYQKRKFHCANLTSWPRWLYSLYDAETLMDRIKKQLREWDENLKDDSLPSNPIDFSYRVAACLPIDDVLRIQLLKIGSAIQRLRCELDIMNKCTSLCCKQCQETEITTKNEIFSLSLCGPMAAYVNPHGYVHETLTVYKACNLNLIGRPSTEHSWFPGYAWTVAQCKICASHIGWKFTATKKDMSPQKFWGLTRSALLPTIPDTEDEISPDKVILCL
Chain of IKZF2 (Helios) (Q16531 whole entry partner): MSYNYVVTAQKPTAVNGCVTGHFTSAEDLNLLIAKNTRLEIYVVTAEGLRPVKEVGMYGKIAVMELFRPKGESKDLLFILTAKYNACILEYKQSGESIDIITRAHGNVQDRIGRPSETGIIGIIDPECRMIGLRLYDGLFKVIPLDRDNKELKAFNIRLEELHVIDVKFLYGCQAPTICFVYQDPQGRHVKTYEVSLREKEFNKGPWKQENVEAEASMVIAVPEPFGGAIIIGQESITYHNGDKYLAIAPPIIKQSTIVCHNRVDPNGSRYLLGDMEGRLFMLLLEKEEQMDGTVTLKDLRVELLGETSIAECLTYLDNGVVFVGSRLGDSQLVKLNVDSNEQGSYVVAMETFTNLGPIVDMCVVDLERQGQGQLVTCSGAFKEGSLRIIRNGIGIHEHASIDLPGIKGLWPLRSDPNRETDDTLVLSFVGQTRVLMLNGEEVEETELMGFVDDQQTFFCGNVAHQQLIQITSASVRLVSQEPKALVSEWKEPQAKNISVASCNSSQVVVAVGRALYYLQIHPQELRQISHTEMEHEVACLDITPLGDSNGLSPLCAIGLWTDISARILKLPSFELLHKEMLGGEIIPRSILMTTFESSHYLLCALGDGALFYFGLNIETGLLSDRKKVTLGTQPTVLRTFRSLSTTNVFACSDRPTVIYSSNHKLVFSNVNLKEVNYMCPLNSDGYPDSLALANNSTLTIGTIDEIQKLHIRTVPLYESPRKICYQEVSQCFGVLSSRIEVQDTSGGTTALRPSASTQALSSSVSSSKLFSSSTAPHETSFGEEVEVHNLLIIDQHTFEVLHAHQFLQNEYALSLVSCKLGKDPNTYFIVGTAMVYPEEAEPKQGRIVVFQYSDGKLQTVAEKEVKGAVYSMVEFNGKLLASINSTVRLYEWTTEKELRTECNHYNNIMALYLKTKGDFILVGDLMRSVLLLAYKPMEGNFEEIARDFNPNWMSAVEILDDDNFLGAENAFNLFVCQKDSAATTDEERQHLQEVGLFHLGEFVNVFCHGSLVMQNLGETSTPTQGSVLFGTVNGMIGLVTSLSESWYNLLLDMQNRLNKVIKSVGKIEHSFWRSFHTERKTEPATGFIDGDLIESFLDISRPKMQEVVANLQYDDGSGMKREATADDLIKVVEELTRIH
Chain of Helios (IKZF2) (Q9UKS7 whole entry): as the sequence (Q9UKS7 whole entry) above
Chain of Helios (IKZF2) (Q96SW2 whole entry): as the sequence (Q96SW2 whole entry) above
Chain of Helios (IKZF2) (Q16531 whole entry partner): as the sequence (Q16531 whole entry partner) above

SMILES	remaining activity at 1 µM [1] [%]	remaining activity at 10 µM [1] [%]	DC50 [2] [nM]	Dmax [2] [%]	IKZF2 degradation activity (in words, comment on Table 1) ([1]; as shown in Table 1)
Cc1c(C(=O)N2CCC(c3ccc4c(c3)CN(C3CCC(=O)NC3=O)C4=O)CC2)[nH]c2cc(O)ccc12 (stereo not shown) [Compound 47, 3-(5-(1-(6-hydroxy-3-methyl-1H-indole-2-carbonyl)piperidin-4-yl)-1-oxoinsoindolin-2-yl)piperidine-2,6-dione]	27.9	24	100 to 1000	–	–
Cc1c(C(=O)N2CCC(c3ccc4c(c3)CN(C3CCC(=O)NC3=O)C4=O)CC2)[nH]c2cc(C(F)(F)F)ccc12 (stereo not shown) [Compound 48, 3-(5-(1-(3-methyl-6-(trifluoromethyl)-1H-indole-2-carbonyl)piperidin-4-yl)-1-oxoinsoindolin-2-yl)piperidine-2,6-dione]	–	8.21	10 to 100	–	–
Cc1c(C(=O)N2CCC(c3ccc4c(c3)CN(C3CCC(=O)NC3=O)C4=O)CC2)[nH]c2cc(Br)ccc12 (stereo not shown) [Compound 49, 3-(5-(1-(6-bromo-3-methyl-1H-indole-2-carbonyl)piperidin-4-yl)-1-oxoinsoindolin-2-yl)piperidine-2,6-dione]	–	8.67	100 to 1000	–	–
Cc1c(C(=O)N2CCC(c3ccc4c(c3)CN(C3CCC(=O)NC3=O)C4=O)CC2)[nH]c2cc(C#N)ccc12 (stereo not shown) [Compound 52, 2-(4-(2-(2,6-dioxopiperidin-3-yl)-1-oxoindolin-5-yl)piperidine-1-carbonyl)-3-methyl-1H-indole-6-carbonitrile]	–	10.8	10 to 100	–	–
Cc1c(C(=O)N2CCC(c3ccc4c(c3)CN(C3CCC(=O)NC3=O)C4=O)CC2)[nH]c2cc(OC(F)(F)F)ccc12 (stereo not shown) [Compound 53, 3-(5-(1-(3-methyl-6-(trifluoromethoxy)-1H-indole-2-carbonyl)piperidin-4-yl)-1-oxoinsoindolin-2-yl)piperidine-2,6-dione]	–	7.7	100 to 1000	–	–
Cc1c(C(=O)N2CCC(c3ccc4c(c3)CN(C3CCC(=O)NC3=O)C4=O)CC2)[nH]c2cc([N+](=O)[O-])ccc12 (stereo not shown) [Compound 55, 3-(5-(1-(3-methyl-6-nitro-1H-indole-2-carbonyl)piperidin-4-yl)-1-oxoinsoindolin-2-yl)piperidine-2,6-dione]	–	5.1	< 10	100	–
Cc1c(C(=O)N2C3CCC2CC(c2ccc4c(c2)CN(C2CCC(=O)NC2=O)C4=O)C3)[nH]c2cc(Cl)ccc12 (stereo not shown) [Compound 58, 3-(5-(8-(6-chloro-3-methyl-1H-indole-2-carbonyl)-8-azabicyclo[3.2.1]octan-3-yl)-1-oxoinsoindolin-2-yl)piperidine-2,6-dione]	–	5.2	10 to 100	–	excellent IKZF2 degradation activity
Cc1c(C(=O)N2CCC(c3ccc4c(c3)CN(C3CCC(=O)NC3=O)C4=O)CC2C)[nH]c2cc(Cl)ccc12 (stereo not shown) [Compound 60, 3-(5-(1-(6-chloro-3-methyl-1H-indole-2-carbonyl)-2-methylpiperidin-4-yl)-1-oxoinsoindolin-2-yl)piperidine-2,6-dione]	–	5.4	10 to 100	–	–
Cc1c(C(=O)N2CCC(O)(c3ccc4c(c3)CN(C3CCC(=O)NC3=O)C4=O)CC2)[nH]c2cc(Cl)ccc12 (stereo not shown) [Compound 64, 3-(5-(1-(6-chloro-3-methyl-1H-indole-2-carbonyl)-4-hydroxypiperidin-4-yl)-1-oxoinsoindolin-2-yl)piperidine-2,6-dione]	–	8.1	10 to 100	–	–
COc1cc2c(C)c(C(=O)N3CCC(c4ccc5c(c4)CN(C4CCC(=O)NC4=O)C5=O)CC3)[nH]c2cc1Cl (stereo not shown) [Compound 71, 3-(5-(1-(6-chloro-5-methoxy-3-methyl-1H-indole-2-carbonyl)piperidin-4-yl)-1-oxoinsoindolin-2-yl)piperidine-2,6-dione]	14.2	25.3	< 10	100	–
CCNC(=O)Nc1ccc2c(C)c(C(=O)N3CCC(c4ccc5c(c4)CN(C4CCC(=O)NC4=O)C5=O)CC3)[nH]c2c1 (stereo not shown) [Compound 75, 1-(2-(4-(2-(2,6-dioxopiperidin-3-yl)-1-oxoindolin-5-yl)piperidine-1-carbonyl)-3-methyl-1H-indol-6-yl)-3-ethylurea]	29.6	19	100 to 1000	–	–
Cc1c(C(=O)N2CCC(c3ccc4c(c3)CN(C3CCC(=O)NC3=O)C4=O)CC2)[nH]c2cc([N+](=O)[O-])c(Cl)cc12 (stereo not shown) [Compound 84, 3-(5-(1-(5-chloro-3-methyl-6-nitro-1H-indole-2-carbonyl)piperidin-4-yl)-1-oxoinsoindolin-2-yl)piperidine-2,6-dione]	–	9.7	100 to 1000	–	–
Cc1cc2c(C)c(C(=O)N3CCC(c4ccc5c(c4)CN(C4CCC(=O)NC4=O)C5=O)CC3)[nH]c2cc1[N+](=O)[O-] (stereo not shown) [Compound 85, 3-(5-(1-(3,5-dimethyl-6-nitro-1H-indole-2-carbonyl)piperidin-4-yl)-1-oxoinsoindolin-2-yl)piperidine-2,6-dione]	–	11	100 to 1000	–	–
Cc1c(C(=O)N2CCC(c3ccc4c(c3)CN(C3CCC(=O)NC3=O)C4=O)CC2)[nH]c2cc([N+](=O)[O-])c(O)cc12 (stereo not shown) [Compound 86, 3-(5-(1-(5-hydroxy-3-methyl-6-nitro-1H-indole-2-carbonyl)piperidin-4-yl)-1-oxoinsoindolin-2-yl)piperidine-2,6-dione]	–	9.9	10 to 100	–	–
CN(C)Cc1c(C(=O)N2CCC(c3ccc4c(c3)CN(C3CCC(=O)NC3=O)C4=O)CC2)[nH]c2cc(Cl)ccc12 (stereo not shown) [Compound 87, 3-(5-(1-(6-chloro-3-((dimethylamino)methyl)-1H-indole-2-carbonyl)piperidin-4-yl)-1-oxoinsoindolin-2-yl)piperidine-2,6-dione]	–	8.7	100 to 1000	–	–
Cc1c(C(=O)N2CCC(c3cc4c(cc3F)C(=O)N(C3CCC(=O)NC3=O)C4)CC2)[nH]c2cc(Cl)ccc12 (stereo not shown) [Compound 90, 3-(5-(1-(6-chloro-3-methyl-1H-indole-2-carbonyl)piperidin-4-yl)-6-fluoro-1-oxoinsoindolin-2-yl)piperidine-2,6-dione]	–	6.2	< 10	100	–
Cc1c(C(=O)N2CCC(c3ccc4c(c3F)CN(C3CCC(=O)NC3=O)C4=O)CC2)[nH]c2cc(Cl)ccc12 (stereo not shown) [Compound 91, 3-(5-(1-(6-chloro-3-methyl-1H-indole-2-carbonyl)piperidin-4-yl)-4-fluoro-1-oxoinsoindolin-2-yl)piperidine-2,6-dione]	–	6.4	< 10	100	–
Cc1c(C(=O)N2CCC(c3cc4c(cc3F)C(=O)N(C3CCC(=O)NC3=O)C4)CC2)[nH]c2cc([N+](=O)[O-])ccc12 (stereo not shown) [Compound 93, 3-(6-fluoro-5-(1-(3-methyl-6-nitro-1H-indole-2-carbonyl)piperidin-4-yl)-1-oxoinsoindolin-2-yl)piperidine-2,6-dione]	–	26.5	< 10	100	–
Cc1c(C(=O)N2CCC(c3ccc4c(c3F)CN(C3CCC(=O)NC3=O)C4=O)CC2)[nH]c2cc([N+](=O)[O-])ccc12 (stereo not shown) [Compound 94, 3-(4-fluoro-5-(1-(3-methyl-6-nitro-1H-indole-2-carbonyl)piperidin-4-yl)-1-oxoinsoindolin-2-yl)piperidine-2,6-dione]	–	8.5	< 10	100	–
Cc1c(C(=O)N2CCC(c3ccc4c(c3F)CN(C3CCC(=O)NC3=O)C4=O)CC2)[nH]c2cc(Cl)c(C#N)cc12 (stereo not shown) [Compound 119, 6-chloro-2-(4-(2-(2,6-dioxopiperidin-3-yl)-4-fluoro-1-oxoindolin-5-yl)piperidine-1-carbonyl)-3-methyl-1H-indole-5-carbonitrile]	–	–	10 to 100	92	–
Cc1c(C(=O)N2CCC(c3ccc4c(c3F)CN(C3CCC(=O)NC3=O)C4=O)CC2)[nH]c2cc(C#N)c(F)cc12 (stereo not shown) [Compound 120, 2-(4-(2-(2,6-dioxopiperidin-3-yl)-4-fluoro-1-oxoindolin-5-yl)piperidine-1-carbonyl)-5-fluoro-3-methyl-1H-indole-6-carbonitrile]	–	–	10 to 100	–	–
Cc1c(C(=O)N2CCC(c3ccc4c(c3F)C(=O)N(C3CCC(=O)NC3=O)C4=O)CC2)[nH]c2cc(Cl)ccc12 (stereo not shown) [Compound 121, 5-(1-(6-chloro-3-methyl-1H-indole-2-carbonyl)piperidin-4-yl)-2-(2,6-dioxopiperidin-3-yl)-4-fluoroisoindoline-1,3-dione]	–	–	100 to 1000	–	–
